In series [1] the target is T1, Lysophosphatidic acid receptor 1 (Homo sapiens, UniProt Q92633). Put plainly: Antagonist activity at LPA1 receptor in serum starved human TWNT-4 cells assessed as nuclear translocation pre-incubated for 1 hr followed by LPA stimulation and measured after 30 min by MRTF-A assay. It is filed as cell-based.
The nature of series [2]: Lipophilicity, logD of compound at pH 7.4. It is filed as physicochemical. The following applies: buffer.
Series [3] can be described thus: Plasma protein binding in human assessed as unbound fraction incubated for 24 hrs by equilibrium dialysis based Rapidfire-QToF mass spectrometric analysis. Type of series: ADME, cell-free. A general note: In equilibrium dialysis only unbound substance equilibrates across the membrane.
Series [4] is described as follows: Apparent permeability across apical to basolateral side in cMDR1 knockout MDCK-II cells incubated upto 240 mins by RF-QToF analysis. Type of series: ADME, cell-based, Canis lupus familiaris. The settings on record: dog.
A short description of series [5]: Dissociation constant, pKa of compound at 100 uM by capillary electrophoresis. It is filed as physicochemical.
The nature of series [6]: Drug excretion in bile-duct cannulated rat urine at 1 mg/kg, iv. Type of series: ADME, organism-based. The following applies: read-out: Drug excretion.
Series [7] concerns the target T1, Lysophosphatidic acid receptor 1. In words: […] at LPA1 receptor in human TWNT-4 cells assessed as nuclear translocation pre-incubated for 1 hr followed by 30 min incubation by MRTF-A assay. It is filed as functional, cell-based.
Series [8] has the same target. Put plainly: […] at LPA1 receptor in human TWNT-4 cells pre-incubated for 1 hr followed by 30 mins incubation in presence of 4% human serum albumin by MRTF-A assay. It is filed as functional, cell-based.
Series [9] is described as follows: Metabolic stability in male Sprague-Dawley rat liver microsomes assessed as intrinsic clearance at 1 uM by LC/MS/MS analysis. Type of series: ADME, Microsome. The following applies: read-out: CLH (converted). For orientation: Liver microsomes are vesicles of endoplasmic reticulum, rich in cytochrome P450 enzymes.
The nature of series [10]: Metabolic stability in Beagle dog liver microsomes assessed as intrinsic clearance at 1 uM by LC/MS/MS analysis. It is filed as ADME, Canis lupus familiaris, Microsome. The following applies: read-out: CLH (converted).
Series [11] in a line: Metabolic stability in cynomolgus monkey liver microsomes assessed as intrinsic clearance at 1 uM by LC/MS/MS analysis. Type of series: ADME, Macaca fascicularis, Microsome. The following applies: read-out: CLH (converted).
Series [12] in a line: Volume of distribution in male Sprague-Dawley rat at 1 mg/kg, iv s measured after 24 hrs by LC/MS/MS analysis. Type of series: ADME, organism-based. The settings on record: in vivo.
Series [13] in a line: Volume of distribution in Beagle dog at 1 mg/kg, iv measured after 24 hrs by LC/MS/MS analysis. It is filed as ADME, organism-based, Canis lupus familiaris. The settings on record: in vivo.
A short description of series [14]: Volume of distribution in cynomolgus monkey at 1 mg/kg, iv measured after 24 hrs by LC/MS/MS analysis. Type of series: ADME, organism-based, Macaca fascicularis. The following applies: in vivo.
Series [15] can be described thus: AUC (0 to 24 hrs) in male Sprague-Dawley rat at 5 mg/kg, po measured after 24 hrs by LC/MS/MS analysis. The following applies: in vivo. It is filed as ADME, organism-based.
The nature of series [16]: AUC (0 to 24 hrs) in Beagle dog at 5 mg/kg, po measured after 24 hrs by LC/MS/MS analysis. It is filed as ADME, organism-based, Canis lupus familiaris. The settings on record: in vivo.
Series [17] in a line: AUC (0 to 24 hrs) in cynomolgus monkey at 5 mg/kg, po measured after 24 hrs by LC/MS/MS analysis. Type of series: ADME, organism-based, Macaca fascicularis. The following applies: in vivo.
A short description of series [18]: Half-life in male Sprague-Dawley rat at 1 mg/kg, iv measured after 24 hrs by LC/MS/MS analysis. It is filed as ADME, organism-based. The following applies: in vivo.
A short description of series [19]: Half-life in Beagle dog at 5 mg/kg, po measured after 24 hrs by LC/MS/MS analysis. Type of series: ADME, organism-based, Canis lupus familiaris. The settings on record: in vivo.
A short description of series [20]: Half-life in cynomolgus monkey at 5 mg/kg, po measured after 24 hrs by LC/MS/MS analysis. Type of series: ADME, organism-based, Macaca fascicularis. The settings on record: in vivo.
Series [21] can be described thus: Oral bioavailability in male Sprague-Dawley rat at 5 mg/kg measured after 24 hrs by LC/MS/MS analysis. It is filed as ADME, organism-based. The following applies: in vivo.
A short description of series [22]: Oral bioavailability in Beagle dog at 5 mg/kg measured after 24 hrs by LC/MS/MS analysis. It is filed as ADME, organism-based, Canis lupus familiaris. The following applies: in vivo.
The nature of series [23]: Oral bioavailability in cynomolgus monkey at 5 mg/kg measured after 24 hrs by LC/MS/MS analysis. It is filed as ADME, organism-based, Macaca fascicularis. The following applies: in vivo.

Each structure is given as a SMILES string.

T1 sequence (Q92633 whole entry): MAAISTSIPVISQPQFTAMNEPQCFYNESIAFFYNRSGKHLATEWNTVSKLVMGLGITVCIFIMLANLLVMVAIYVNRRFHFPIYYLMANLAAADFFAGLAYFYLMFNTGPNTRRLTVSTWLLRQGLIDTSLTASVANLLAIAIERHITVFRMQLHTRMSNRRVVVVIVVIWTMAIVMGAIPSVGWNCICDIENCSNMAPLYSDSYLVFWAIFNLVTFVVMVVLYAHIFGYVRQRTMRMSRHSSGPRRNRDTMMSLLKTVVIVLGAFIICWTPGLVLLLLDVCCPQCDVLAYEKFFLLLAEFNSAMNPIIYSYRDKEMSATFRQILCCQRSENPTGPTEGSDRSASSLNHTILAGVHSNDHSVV

The term EC50 denotes the concentration needed to bring the measured effect to its halfway point. The logD is lipophilicity at a set pH, counting ionised and neutral species. Broadly, the fraction unbound is free concentration divided by total concentration. Broadly, the Papp A→B is the apparent permeability from the apical to the basolateral side of a cell layer. As a reminder, the pKa is the pH at which an ionisable group is half protonated. With `Cc1nc(-c2nnn(C)c2NC(=O)O[C@H](C)c2cccnc2Cl)ccc1NS(C)(=O)=O`, the EC50 in series [1] was found to be 109 nM. In series [2], this compound came in with a pH-dependent lipophilicity (logD) of 1.5. For the same compound, the fraction unbound at 24 h in series [3] amounted to 0.17. The Papp A→B at 4 h in series [4] came out at 5.9 ×10⁻⁶ cm/s. The pKa at 100 µM in series [5] was found to be 7.1. Besides, the dose excreted in series [6] stood at 50%.

As for `CCCCCCCC/C=C\CCCCCCCC(=O)OC[C@@H](O)COP(=O)(O)O` [LYSOPHOSPHATIDIC ACID], the concentration for a half-maximal effect (EC50) was 47.3 nM in [7] and 306 nM in series [8].

For orientation: Vd means the apparent volume that relates the amount in the body to the concentration in plasma or blood. As a reminder, the AUC(0-t) is exposure summed from dosing to a finite time, without extrapolation to infinity. The term half-life denotes how long it takes for the measured level to halve. As a reminder, the bioavailability is dose-corrected exposure relative to a reference, in per cent. As for `C[C@@H](OC(=O)Nc1c(-c2ccc(NS(C)(=O)=O)cn2)nnn1C)c1cc(F)cnc1F`, the EC50 in [1] stood at 35 nM. Moreover, in series [2], the pH-dependent lipophilicity (logD) is 1.5. In addition, the fraction unbound at 24 h in [3] turned out to be 0.31. Also, the Papp A→B at 4 h in series [4] was determined as 3.2 ×10⁻⁶ cm/s. In addition, the CLint scaled at 1 µM was 18.5 mL/min/kg in series [9], 8.67 mL/min/kg in [10] and 7.17 mL/min/kg in series [11]. The volume of distribution (Vd) in [12] turned out to be 1 L/kg; in series [13] it was 1 L/kg; in series [14] it was 0.4 L/kg. In addition, the figures for the area under the curve AUC(0-t) at 24 h in [15], in series [16] and in series [17] were 5.4 µM·h, 25 µM·h and 13 µM·h, respectively. In addition, the half-life is 3 h in [18], 3.6 h in series [19] and 3.8 h in [20]. For the same compound, the bioavailability in [21] worked out at 55%; in series [22], 100%; in [23], 45%.
